Earlier results on one compound are cited in patent publication US20090155363A1, “METHODS FOR ORAL ADMINISTRATION OF ACTIVE DRUGS” (priority 2007, published 2009).

For this data set the following is noted: drug mixed with foods such as applesauce or vegetable juice, relative to administration of a nizatidine capsule with water.

On to `CNC(=C[N+](=O)[O-])NCCSCc1csc(CN(C)C)n1` [nizatidine], for which the reduction of bioavailability is 30 to 40%.
